What was measured:
Type in all cases: in vivo, New Zealand white rabbits
[1] = test system: cornea of alkaline burn rabbit; assay: Clinical evaluation of corneal angiogenesis and opacification in corneal alkaline burn rabbit model; details: 10 mg/mL instilled 4 times per day for 10 days, day 17 after alkaline burn; for corneal opacity score (graded 0 through 3): mean±SD, n=5, saline control 3.0±0.0
Procedure: (§1) 15 New Zealand white rabbits weighing between 2.0 kg and 2.5 kg were purchased from Samtako (Osan, Korea), and then, were subjected to systemic anesthesia by intramuscular injection of a mixture of ketamine hydrochloride (30 mg/kg body weight, Huons, Jecheon, Korea) and xylazine hydrochloride (2.5 mg/kg, Bayer Korea Ltd., Seoul, Korea) and to topical anesthesia by Alcaine propracaine eye drops (Alcon Inc., Seoul, Korea).
(§2) Afterwards, alkaline burn model was developed by applying an 8 mm filter paper soaked in 1 N NaOH to the right central corneas of rabbits for 1 minute. 7 days later, an increase in corneal angiogenesis and corneal opacity upon alkaline burns was confirmed.
(§3) The rabbits were randomly divided into three groups: the alkaline burn group (n=5), the peptide I group (n=5), and the peptide II group (n=5). The alkaline burn group was treated with saline instilled thereto 4 times per day, the peptide I group was treated with 10 mg/mL of peptide SEQ ID NO: 1 instilled thereto 4 times per day, and the peptide II was treated with 10 mg/mL of peptide SEQ ID NO: 2 instilled thereto 4 times per day. The left eyes were used as controls.
7 days after the corneal alkaline burns, clinical evaluation of corneal angiogenesis and opacification was performed.
First, the extent of corneal angiogenesis was scored from 0 through 3, where 0 denotes no angiogenesis, 1 denotes angiogenesis confined to the corneal periphery, 2 denotes angiogenesis extending up to the pupil margin, and 3 denotes angiogenesis extending beyond the pupil margin into the central cornea. In eyes where significant opacification or extensive symblepharon formation caused difficulties in evaluating corneal angiogenesis, a score of 3 was assigned.
In addition, the severity of corneal opacification was graded from 0 through 3, where 0 denotes clear cornea with iris details clearly visualized, 1 denotes partial obscuration of the iris details, 2 denotes iris details poorly seen with the pupil margin just visible, and 3 denotes complete obscuration of iris and pupil details. […]

[2] = test system: cornea of alkaline burn rabbit; assay: Corneal thickness of H&E-stained tissue sections in corneal alkaline burn rabbit model; details: 10th day after treatment, 10 mg/mL instilled 4 times per day, normal 628.0±13.2, alkali burn control 1078.0±30.8
Procedure: as §1, §2
as §3, with “controls. […]” for “controls.”
The corneal thickness of the tissue sections was measured using photographs obtained by the H&E staining and taken with a virtual microscope (NanoZoomer 2.0 RS, Hamamatsu, Japan) according to the NDP view program (Hamamatsu, USA).

[3] = test system: fibroblast in the stroma of alkaline burn rabbit cornea; assay: Masson's trichrome staining for fibrotic changes of the cornea following alkali burns; details: 10th day after treatment, 10 mg/mL instilled 4 times per day
Procedure: as §1, §2, §3
(§4) On the 10th day after the treatment as described above, the H&E staining, the Masson's trichrome staining, and immunohistochemistry were performed to observe the fibrosis, angiogenesis, inflammation, and structural changes of the cornea. […]

[4] = test system: cornea of alkaline burn rabbit; assay: H&E staining for histological changes in cornea following alkaline burn; details: 10th day after treatment, 10 mg/mL instilled 4 times per day
Procedure: as §1, §2, §3, §4

CD31 = assay: Immunohistochemistry of angiogenic marker CD31 in alkaline burn rabbit cornea; details: 10 mg/mL instilled 4 times per day, 10th day, compared with the peptide I group
Procedure: (§5) Ocular tissue sections of an alkaline burn animal model were cut to a thickness of 6 μm, and then, the tissue sections were used for immunohistochemical analysis.
(§6) First, the tissue sections were fixed in 3.5% paraformaldehyde, permeabilized with 0.1% Triton X-100, blocked with 2% bovine serum albumin (BSA; all from Sigma, St. Louis, Mo.), and incubated overnight with the following primary antibodies; anti-CD31 (1:1,000; Abcam Inc., Cambridge, Mass.), anti-MMP-9, anti-ICMA-1, anti-VCAM-1 (1:1,000; from Bioss Antibodies, Woburn, Mass.), anti-TNFα, anti-NF-κB (1:1,000; all from biorbyt LLC, San Franciso, Calif.) anti-macrophage/monocyte (Abnova Crop., Taipei, Taiwan), and anti-VEGF-A (Abbiotec, San Diego, Calif.).
(§7) Next, the tissue sections were incubated with a secondary antibody for 45 minutes. The immunological reactions therein were visualized with diaminobenzidine (DAB) chromogen, and the tissue sections were counterstained with Mayer's hematoxylin (Sigma) for 30 seconds at room temperature.
(§8) The sections were photographed with a virtual microscope (virtual microscope; NanoZoomer 2.0 RS, Hamamatsu, Japan).
(§9) The rabbits were randomly divided into three groups: the alkaline burn group (n=5), the peptide I group (n=5), and the peptide II group (n=5). […]

VEGF = assay: Immunohistochemistry of angiogenic marker VEGF in alkaline burn rabbit cornea; details: 10 mg/mL instilled 4 times per day, 10th day, compared with the peptide I group
Procedure: as §5, §6, §7, §8, §9

macrophages = assay: Immunohistochemistry of macrophages in alkaline burn rabbit cornea; details: 10 mg/mL instilled 4 times per day, 10th day
Procedure: as §5, §6, §7, §8, §9

TNFα = assay: Immunohistochemistry of inflammatory marker TNFα in alkaline burn rabbit cornea; details: 10 mg/mL instilled 4 times per day, 10th day
Procedure: as §5, §6, §7, §8, §9

ICAM-1 = assay: Immunohistochemistry of inflammatory marker ICAM-1 in alkaline burn rabbit cornea; details: 10 mg/mL instilled 4 times per day, 10th day
Procedure: as §5, §6, §7, §8, §9

VCAM-1 = assay: Immunohistochemistry of inflammatory marker VCAM-1 in alkaline burn rabbit cornea; details: 10 mg/mL instilled 4 times per day, 10th day
Procedure: as §5, §6, §7, §8, §9

MMP-9 = assay: Immunohistochemistry of inflammatory marker MMP-9 in alkaline burn rabbit cornea; details: 10 mg/mL instilled 4 times per day, 10th day, compared to the peptide I group
Procedure: as §5, §6, §7, §8, §9

NF-κB = assay: Immunohistochemistry of NF-κB in alkaline burn rabbit cornea; details: 10 mg/mL instilled 4 times per day, 10th day, compared to peptide I treatment
Procedure: as §5, §6, §7, §8, §9

Substance | corneal opacity score (graded 0 through 3) [1] | corneal thickness [2] | fibrotic changes / population of fibroblast in stroma (Masson's trichrome) [3] | histological alterations (epithelial proliferation, infiltration of inflammatory cells, stromal edema, angiogenesis; H&E) [4] | corneal angiogenesis (scored 0 through 3) ([1]; compared to the control group (2.7±0.5)) | expression of CD31 in epithelium, subepithelium and stroma (CD31) | expression of VEGF in epithelium, subepithelium and stroma (VEGF) | expression of macrophages (macrophages) | expression of TNFα (TNFα) | expression of ICAM-1 (ICAM-1) | expression of VCAM-1 (VCAM-1) | expression of MMP-9 (MMP-9) | expression of NF-κB in stroma (NF-κB)
GDRGD (Collagen type I, alpha 1) [peptide I, collagen type I α1 based peptide from CDEM, synthesized; used as comparative group] | 2.1±0.3 | 1066.0±31.7 μm | little effect on the fibrotic changes | little effect | – | – | – | – | – | – | – | – | –
GQDGLAGPK (Collagen type II, alpha 1) [peptide II, collagen type II α1 based peptide isolated from chondrocyte-derived extracellular matrix (CDEM), synthesized] | 1.9±0.6 | 876.0±37.0 μm | significantly suppressed the population of fibroblast | improved | decreased angiogenesis | significantly decreased | significantly decreased | effectively suppressed | decreased | decreased | decreased | suppressed | decreased
